Experimental data from patent US11401306B2, “HPV16 non HLA-restricted t-cell vaccines, compositions and methods of use thereof” (priority 2016, dated 2022).

Experiments:
Format in all cases: in vivo
[1] = tested on: HPV-specific T-cell response (splenocytes); test: IFN-g ELISPOT on splenocytes of vaccinated humanized HLA-A2 transgenic mice
Description: (§1) Sequence selection was accomplished herein using both tumor regression studies in C57/B6 mice, and interferon-gamma ELISPOT studies in HLA-A2 humanized transgenic mice. […] In the HLA-A2 mouse model ELISPOT study, at least 20 spots per million splenocytes was regarded to be a positive response.
This example highlights the approach to evaluating T-cell responses using ELISPOT studies in humanized HLA-A2 transgenic mice. In these studies, the vaccine contained the selected peptide at a concentration of 0.1-3.0 mg/mL and cationic liposomes when used, at a concentration of 0.2-3.0 mg/mL. Humanized HLA-A2 transgenic mice having components of the human immune system capable of recognizing human antigens were vaccinated on day 0 and day 7 with 100 uL of the vaccine. On day 14 the mice were sacrificed and HPV-specific immune response evaluated by interferon-gamma ELISPOT using standard approaches with the splecocytes from the mice (4-8 per group). The splenocytes were stimulated with the specified CD8+ T-cell epitope peptides or the long multi-epitope peptides specified in Table 2. The number of IFN-g spots per million cells is listed for the specified examples. […] The ability of the humanized transgenic mice to successfully generate a T-cell immune response (>20 spots) when stimulated with each of the long multi-epitope peptides as well as short single epitope peptides confirms that the selected peptides are effectively processed and presented to T-cells. In these studies, un-stimulated splenocytes and splenocytes stimulated with irrelevant peptides were both used together as negative controls in every assay. For the positive control in the assay ConA was used.
The present study was performed to evaluate the effect of chemical modification of select peptides on immunogenicity and their ability to be processed, presented and to prime human CD8+ HPV-specific T-cell responses. Peptides corresponding to SEQ ID NO: 23 and 25 contain cysteines which upon oxidation lead to the formation of dimers and other multimers. Two vaccine formulations were prepared containing peptides corresponding to SEQ ID NO: 23 and 25.
In Formulation A: Both peptides were monomeric with high purity confirmed by HPLC analysis. The vaccine contained 1.5-1.6 mg/mL of each peptide.
In Formulation B: Significant oxidation and multimer formation of both peptides was confirmed by HPLC analysis.
Both formulations were mixed 1:1 with 5.8 mg/mL of R-DOTAP prior to vaccination.
The immunogenicity of the peptides was compared as described in the above examples in 10 HLA-A2 mice per formulation by evaluating the ability to induce CD8+ T-cells. ELISPOT studies were performed as described above.

TC-1 tumor = TC-1 tumor regression screening of peptides in C57/B6 mice; set-up: key: Positive: a positive T-cell response was a T-cell response that resulted in regression of the tumor; details: TC-1 tumors in C57/B6 mice, vaccinated day 7, peptide alone or with cationic lipid
Description: as §1
This example illustrates the evaluation or screening of several HPV16 E7 peptides in the TC-1 mouse tumor regression model for their effective processing and presentation of the key epitopes leading to HPV-specific T-cell induction and subsequent tumor regression.
In the tumor regression screening studies mice were implanted with 100,000 TC-1 cells on day 0. On day 7, once the tumors were well established the mice were vaccinated with the specific peptide sequences, either formulated alone or in combination with cationic lipids such as DOTMA, DOEPC or R-DOTAP to facilitate up-take and presentation. In these studies, the vaccine contained the selected peptide at a concentration of 0.1-3.0 mg/mL and cationic liposomes at a concentration of 0.2-3.0 mg/mL. In the cases where the peptide sequences were lipidated by attaching a palmitoyl chain, the peptides were simply mixed with the cationic liposomes prior to vaccination. In the case of the non-lipidated peptides, the liposomes were made and peptides encapsulated by traditional thin film liposome preparation methods (F Szoka, and D Papahadjopoulos, Comparative Properties and Methods of Preparation of Lipid Vesicles (Liposomes), Annual Review of Biophysics and Bioengineering, Vol. 9:467-508, 1980). Other methods well known to those skilled in the art may also have been used.
A sample tumor regression plot showing results for peptides corresponding to SEQ ID NO: 1 (blank square), SEQ ID NOS: 7, 8, 31 32 and 31 (solid black circle), SEQ ID NO: 7 (blank circle), and SEQ ID NO: 8 (solid black triangle) is shown in FIG. 3.

[2] = tested on: HPV-specific CD8+ T-cell induction (splenocytes); test: ELISPOT in normal C57/B6 mice, peptide with other cationic lipids; details: stimulated with RAHYNIVTF (SEQ ID NO: 1)
Description: To determine if the identified long HPV16 peptides are compatible with other cationic lipids besides DOTAP, the peptide corresponding to SEQ ID NO: 26 was used as the model peptide in combination with two other cationic lipids DOTMA and DOEPC. To evaluate the ability of the peptides to effectively undergo processing and presentation, in the presence of both cationic lipids, an ELISPOT study was conducted using normal C57/B6 mice. ELISPOT studies were performed as described above and utilized to determine effective CD8+ T-cell induction.
In formulation 1, 1.35 mg/mL of DOTMA was mixed 1:1 v/v with 0.5 mg/mL of the peptide corresponding to SEQ ID NO: 26.
In formulation 2, 1.67 mg/mL of DOEPC was missed 1:1 v/v with 0.5 mg/mL of the peptide corresponding to SEQ ID NO: 26.
For each formulation 4 mice were vaccinated on Day 0 and Day 7. On Day 14 the mice were scarified and the splenocytes utilized in the ELISPOT study.

For PalmKSS GQAEPDRAHYNIVTF [SEQ ID NO: 26], the “Immune Response, Method: ELISPOT” value ([1]; HLA-A2 humanized transgenic mice, IFN-gamma ELISPOT) was “Positive, ELISPOT (at least 20 spots per million splenocytes was regarded to be a positive response)”, the “ELISPOT result Av spots/10^6 cells” value ([1]; splenocytes stimulated with GQAEPDRAHYNIVTF (SEQ ID NO: 5)) was 1,544 spots/10^6 cells and the “ELISPOT result Av spots/10^6 cells” value ([1]; splenocytes stimulated with RAHYNIVTF (SEQ ID NO: 1)) was 1,552 spots/10^6 cells. For the same substance, the “Immune Response, Method: tumor regression” value (TC-1 tumor) was “Positive tumor regression”, the “ELISPOT result Av spots/10^6 cells” value ([2]; formulated with DOEPC (formulation 2)) was 243 spots/10^6 cells and the “ELISPOT result Av spots/10^6 cells” value ([2]; formulated with DOTMA (formulation 1)) was 988 spots/10^6 cells.
